Patent US20090306093A1, “METHOD FOR TREATING PATIENT HAVING BENIGN PROSTATE HYPERPLASIA” (KAOHSIUNG MEDICAL UNIVERSITY, priority 2008, published 2009)

Legend:
p21 = assay: Western blot of p21 protein in PZ-HPV-7 cells; assay type: cell-based, human; conditions: 1, 10 μM, until 24 hours
Description: (§1) In order to examine the expression of Rho kinase in prostate, the prostate strips were pre-incubated with phenylephrine (10 μM) for 30 minutes. After a pre-treatment of phenylephrine, KMUP-1 (10-100 μM) and Y-27632 (10 μM) were further incubated for 30 minutes. After the incubation time, the prostate were extracted with protein extraction reagent (Pierce Biotechnology, Inc., Rockford, Ill., USA.). The PZ-HPV-7 cells were incubated with and without KMUP-1 (0.1-10 μM) at 30 minutes, 8 and 24 hours. They were then washed rapidly with ice-cold PBS, incubated with protein extraction reagent, and scraped from the plates. The prostate tissues and cells were sonicated three times for 10 second each time and centrifuged at 13,000 rpm at 4° C. for 30 minutes. The protein concentrations of supernatants were determined, using bovine serum albumin as the standard. Tissue and cell extract protein were then boiled at a ratio of 4:1 with sample buffer (100 mM Tris, pH 6.8, 20% glycerol, 4% SDS, and 0.2% bromphenol blue). 40-60 μg protein was used in this experiment. Electrophoresis was performed using 10 or 12% SDS-polyacrylamide gel electrophoresis and then transferred to nitrocellulose membranes (Millipore Corporation, Billerica, Mass.). […] The intensity of the bands was measured by densitometry.

PDE5A = assay: Western blot of PDE5A expression in rat prostate; conditions: KMUP-1 10-100 μM
Description: Prostate strips were incubated with KMUP-1 (10-100 μM), sildenafil (100 μM) and zaprinast (100 μM) in 10 mL Tyrode solution aerated with 95% O2 and 5% CO2 for 1 hour. To examine the possible mechanisms of KMUP-1 action, the rat prostate were pretreated with ODQ (10 μM), SQ22536 (10 μM) and RP-8pCPT-cGMPs (10 μM) for 30 minutes prior to the addition of KMUP-1 (100 μM).
as §1, with “standard.” for “standard. Tissue and cell extract protein were then boiled at a ratio of 4:1 with sample buffer (100 mM Tris, pH 6.8, 20% glycerol, 4% SDS, and 0.2% bromphenol blue). 40-60 μg protein was used in this experiment. Electrophoresis was performed using 10 or 12% SDS-polyacrylamide gel electrophoresis and then transferred to nitrocellulose membranes (Millipore Corporation, Billerica, Mass.).”

a1A-adrenoceptor = target: T1, a1A-adrenoceptor (Rattus norvegicus, UniProt P43140); assay: [3H]-prazosin competition binding, rat submaxillary gland membranes
T1 construct: The submaxillary glands, spleen, and aorta of rats were separately homogenized; from tissue; host or cells: Wistar rat submaxillary gland membranes
T1 sequence (P43140 1-466): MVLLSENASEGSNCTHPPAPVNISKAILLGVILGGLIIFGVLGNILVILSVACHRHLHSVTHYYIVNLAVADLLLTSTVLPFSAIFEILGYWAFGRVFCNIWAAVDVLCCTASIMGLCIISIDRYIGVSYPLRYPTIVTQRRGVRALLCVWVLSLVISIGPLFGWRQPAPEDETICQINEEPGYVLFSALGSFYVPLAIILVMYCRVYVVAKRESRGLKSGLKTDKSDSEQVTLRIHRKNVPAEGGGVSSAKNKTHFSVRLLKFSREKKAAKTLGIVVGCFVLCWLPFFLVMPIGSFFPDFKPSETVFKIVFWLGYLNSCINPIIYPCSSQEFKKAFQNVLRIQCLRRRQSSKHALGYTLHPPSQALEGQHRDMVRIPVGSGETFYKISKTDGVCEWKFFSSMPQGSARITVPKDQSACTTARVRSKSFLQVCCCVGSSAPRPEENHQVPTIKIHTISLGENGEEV
Description: Wistar rats were obtained from National Laboratory Animal Breeding and Research Center (Taipei, Taiwan) and housed under a constant temperature and controlled illumination. The submaxillary glands, spleen, and aorta of rats were separately homogenized for 30 seconds with a Kinematica polytron in 20 volumes of ice-cold TE buffer (10 mM Tris HCl, 1 mM EDTA, 0.1 mM ascorbic acid, pH 7.4). The homogenate was filtered under pressure through muslin and the filtrate was centrifuged at 1,000 g for 10 minutes. The supernatant was centrifuged again at 10,000 g for 12 minutes at 4° C. The second supernatant was centrifuged at 30,000 g for 15 minutes at 4° C., and the final pellet was resuspended in the assay buffer (75 mM Tris HCl, 25 mM MgCl2, pH 7.4). Protein content was determined by Bradford's method.
[^3H]-prazosin, KMUP-1 and membranes (200-300 μg) were incubated for 60 minutes at 25° C. with or without the addition of nonspecific binding agents, in a 75 mM Tris HCl buffer with 25 mM MgCl2, making a final volume of 500 μL. In this experiment, non-specific binding was defined by use of 10 μM phentolamine. In competitive-binding experiments, the competing agent was added directly to the incubation mixture. The incubation was terminated by adding 1 mL of ice cold assay buffer followed by immediate filtration through Whatman GF/C glass fiber filters supported on a 12-port filter manifold (Whatman Int. Ltd, Springfield Mill, Maidstone, UK). The filters were immediately washed 3 times with 5 mL of ice-cold assay buffer and dried in an oven at 60° C. for 2 hours before adding 5 mL of Triton-toluene based scintillation fluid. Membrane-bound radioligand trapped in the filters was counted in a Beckman LS6500 scintillation system (Fullerton, Calif.) with an efficiency of 45%. In each experiment, nonspecifically bound radioligand agents were measured by incubating membrane protein. Specific binding was then obtained by deducting this value from the total binding of radioligand agents for each sample.

## Cn1c(=O)c2c(ncn2CCN2CCN(c3ccccc3Cl)CC2)n(C)c1=O [KMUP-1, 7-[2-[4-(2-Chlorobenzene)piperazinyl]ethyl]-1,3-dimethyl xanthine]
p21
  production of p21 protein levels: potently induces
PDE5A
  expression of PDE5A: mildly inhibits
a1A-adrenoceptor
  Selective Ratio a1A/a1B: 5
  Selective Ratio a1A/a1D: 1
a1A-adrenoceptor; rat submaxillary glands, [3H]-prazosin, read-out: Receptor Affinity (pKi) a1A (converted)
  Ki: 20.4 nM
